Assay results from US9580465B2, “Tissue protective peptides and peptide analogs for preventing and treating diseases and disorders associated with tissue damage” (ARAIM PHARMACEUTICALS, INC., priority 2008, dated 2017).
Entries after “also recorded” stand apart in the source; their conditions may differ. Square brackets hold non-standard residues; d marks the D form. pGlu = O=C1CC[C@@H](C(=O)O)N1

Key:
[1] = In vivo assessment of erythropoietic activity, 28 days i.v. in rats; set-up: species or system Sprague Dawley rats; settings: 0, 60, 180, 600 μg/kg per dose i.v. twice a day for 28 days; blood on day 29; FIG. 2
Protocol: To evaluate the erythropoietic activity of tissue protective peptides and peptide analogs, Peptide ID was administered intravenously twice a day to Sprague Dawley rats for 28 days. Nine male and nine female rats were assigned to groups 1-4 receiving 0, 60, 180, and 600 μg/kg per dose (0, 48, 143, and 477 nmol/kg, respectively) of Peptide ID in PBS by bolus intravenous administration from days 1-28, Blood samples to assay for hematological variables were collected on day 29. Hemoglobin concentration was determined by use of an automated analyzer (Keska Corporation).

[2] = system: full-thickness skin wounds; experiment: Full thickness punch biopsy model of wound healing; type: in vivo, Sprauge-Dawley rats; settings: 24 nmol/kg of bw s.c. daily for 10 days; FIG. 8
Protocol: A full thickness punch biopsy model of wound healing was used to evaluate Peptide ID. In this experiment, 3.5 mm-diameter full-thickness skin wounds were placed at the corners of a 3 cm-wide square on the shaved and depilated scapular region of Sprauge-Dawley rats. Peptide ID (24 nmol/kg of bw, 9 rats) or PBS (9 rats) was administered subcutaneously daily for 10 days.

[3] = system: 9 L/LacZ gliosarcoma cells; experiment: Cortical tumor implant; type: in vivo, CD fisher rats; settings: 30 μg/kg i.p. daily for 25 days following implantation; FIG. 12
Protocol: A cortical tumor implant study was conducted in accordance with the protocol of Lampson et al. Cancer Res. 53:176-82:1993 to determine the effect of Peptide ID on the growth of the tumor.
In accordance with the protocol, male CD fisher rats were anesthetized and their right scalp was shaved and washed with disinfectant. A small incision was then made in the scalp overlying the right temporal cerebral cortex. A 1 mm hole was drilled through the calvarium, without puncturing the dura matter. Under aseptic conditions, living 50,000 9 L/LacZ gliosarcoma cells in 5 μl was slowly injected through a 22 gauge needle attached to a precision Hamilton syringe. Bone wax was then applied to the trephanation site, the skin was sutured and a prophylactic dose of antibiotic was administered i.p. Control rats were provided with saline injections i.p. daily. The rats treated with Peptide ID received daily injections of 30 μg/kg i.p. daily for a period of 25 days. At 25 days following implantation, the animal was anesthetized and the brain perfused-fixed with 2% paraformaldehyde. The brain was then removed and cut on a brain matrix device into coronal sections 1 mm thick and the extent of tumor mass was determined by planimetric methodology.

[4] = system: partial body irradiation of 15 Gy; experiment: Radiomitigating activity in a gastrointestinal screening assay; type: in vivo, C57BL/6 mice; settings: 15 mice per group, 30 ug/kg subcutaneously from 24 hours, once a day, FIG. 22
Protocol: The ability of peptides useful in the current therapeutic method to mitigate the effects of a radioactive agent on the gastrointestinal system was evaluated in a murine model of radiation injury. Briefly, 30 C57BL/6 mice (male, 20-30 gm) were used in the study.
The radiation was administered to the mice using a Pantak HF320 X-ray (Agfa NDT Ltd., Reading, UK), operated at 300 kV, 10 mA. The X-ray tube has additional filtration to give a radiation quality of 2.3 mm Cu half-value layer (HVL). Mice had their head, thorax, and forelimbs shielded to protect their bone marrow and select for the GI response. The mice were restrained in a jig and positioned at a distance of 700 mm focus from the focus of the X-ray tube. Irradiation was delivered at a dose rate of 75.5 cGy/min (unshielded) and 70.0 cGy/min (shielded) for a period sufficient to expose the mice to 15 Gy of radiation.
At 24 hours following radiation, 15 of the mice were administered Peptide ID (30 ug/kg subcutaneously) and then once a day for the duration of the study and remaining 15 mice (control group) received PBS (subcutaneously) and then once a day for the duration of the study.
The mice were weighed and monitored once a day until signs of diarrhea and early euthanasia appeared, then twice a day.

UEQLERALNSS ([pGlu]EQLERALNSS-OH; also: acetate/ammonium mixed salt) [Peptide ID, first glutamine replaced with pyroglutamate]
hemoglobin concentration [1]: no difference in any of the groups
area of open wound over treatment [2]: faster healing; also recorded: healed more rapidly
relative volume of cortical tumor [3]: no growth in the tumor volume; also recorded: no increase in the relative volume of the tumor
number of mice surviving to day 20 [4]: 6 mice
